In patent US10106558B2, “Azolobenzazine compounds, compositions comprising these compounds and their use for controlling invertebrate pests” (BASF SE, priority 2015, dated 2018):

Tests used:
Assay type in all cases: in vivo
[1] = tested on: tobacco budworm (Heliothis virescens); experiment: Action on tobacco budworm, eggs on insect diet in 96-well microtiter plates; details: 120 h, egg and larval mortality visually assessed after 5 days, read-out: mortality in comparison with untreated controls
Method: Example B6: Action on Tobacco Budworm (Heliothis virescens)
For evaluating control of tobacco budworm (Heliothis virescens) the test unit consisted of 96-well-microtiter plates containing an insect diet and 15-25 H. virescens eggs.
The compounds were formulated using a solution containing 75% v/v water and 25% v/v DMSO. Different concentrations of formulated compounds were sprayed onto the insect diet at 10 μl, using a custom built micro atomizer, at two replications.
After application, microtiter plates were incubated at about 28±1° C. and about 80±5% relative humidity for 5 days. Egg and larval mortality was then visually assessed.

[2] = tested on: boll weevil (Anthonomus grandis); experiment: Action on boll weevil, eggs on insect diet in 96-well microtiter plates; details: 120 h, 800 ppm, egg and larval mortality visually assessed after 5 days, read-out: mortality in comparison with untreated controls
Method: Example B3: Action on Boll Weevil (Anthonomus grandis)
For evaluating control of boll weevil (Anthonomus grandis) the test unit consisted of 96-well-microtiter plates containing an insect diet and 5-10 A. grandis eggs.
(§1) The compounds were formulated using a solution containing 75% v/v water and 25% v/v DMSO. Different concentrations of formulated compounds were sprayed onto the insect diet at 5 μl, using a custom built micro atomizer, at two replications.
After application, microtiter plates were incubated at about 25±1° C. and about 75±5% relative humidity for 5 days. Egg and larval mortality was then visually assessed.

[3] = tested on: Silverleaf Whitefly (Bemisia argentifolii) (Adults); experiment: Action on silverleaf whitefly adults, sprayed cotton plants; details: 72 h, 3 days after treatment, read-out: mortality in comparison with untreated controls
Method: Example B4: Action on Silverleaf Whitefly (Bemisia argentifolii) (Adults)
(§2) The active compounds were formulated by a Tecan liquid handler in 100% cyclohexanone as a 10,000 ppm solution supplied in tubes. The 10,000 ppm solution was serially diluted in 100% cyclohexanone to make interim solutions. These served as stock solutions for which final dilutions were made by the Tecan in 50% acetone:50% water (v/v) into 5 or 10 ml glass vials. A nonionic surfactant (Kinetic®) was included in the solution at a volume of 0.01% (v/v). The vials were then inserted into an automated electrostatic sprayer equipped with an atomizing nozzle for application to plants/insects.
Cotton plants at the cotyledon stage (one plant per pot) were sprayed by an automated electrostatic plant sprayer equipped with an atomizing spray nozzle. The plants were dried in the sprayer fume hood and then removed from the sprayer. Each pot was placed into a plastic cup and about 10 to 12 whitefly adults (approximately 3-5 days old) were introduced. The insects were collected using an aspirator and a nontoxic Tygon® tubing connected to a barrier pipette tip. The tip, containing the collected insects, was then gently inserted into the soil containing the treated plant, allowing insects to crawl out of the tip to reach the foliage for feeding. Cups were covered with a reusable screened lid. Test plants were maintained in a growth room at about 25° C. and about 20-40% relative humidity for 3 days, avoiding direct exposure to fluorescent light (24 hour photoperiod) to prevent trapping of heat inside the cup. Mortality was assessed 3 days after treatment, compared to untreated control plants.

[4] = tested on: Southern Armyworm (Spodoptera eridania), 2nd instar larvae; experiment: Action on southern armyworm 2nd instar larvae, sprayed lima bean plants; details: 96 h, 4 days after treatment, read-out: mortality in comparison with untreated controls
Method: Example B10: Action on Southern Armyworm (Spodoptera eridania), 2nd Instar Larvae
as §2, with “into 10” for “into 5”, “or 20” for “or 10”
Lima bean plants (variety Sieva) were grown 2 plants to a pot and selected for treatment at the 1st true leaf stage. Test solutions were sprayed onto the foliage by an automated electrostatic plant sprayer equipped with an atomizing spray nozzle. The plants were dried in the sprayer fume hood and then removed from the sprayer. Each pot was placed into perforated plastic bags with a zip closure. About 10 to 11 armyworm larvae were placed into the bag and the bags zipped closed. Test plants were maintained in a growth room at about 25° C. and about 20-40% relative humidity for 4 days, avoiding direct exposure to fluorescent light (24 hour photoperiod) to prevent trapping of heat inside the bags. Mortality and reduced feeding were assessed 4 days after treatment, compared to untreated control plants.

[5] = tested on: Diamond Back Moth (Plutella xylostella); experiment: Action on diamond back moth, dipped cabbage leaves; details: 3rd instar larvae, 72 hours after treatment, read-out: mortality in comparison with untreated controls
Method: Example B9: Action on Diamond Back Moth (Plutella xylostella)
The active compound is dissolved at the desired concentration in a mixture of 1:1 (vol:vol) distilled water:acetone. Surfactant (Kinetic® HV) is added at a rate of 0.01% (vol/vol). The test solution is prepared at the day of use.
Leaves of cabbage were dipped in test solution and air-dried. Treated leaves were placed in petri dishes lined with moist filter paper and inoculated with ten 3rd instar larvae. Mortality was recorded 72 hours after treatment. Feeding damages were also recorded using a scale of 0-100%.

[6] = tested on: yellow fever mosquito (Aedes aegypti); experiment: whole plant or invertebrate; details: 48 h, larval mortality visually assessed after 2 days, read-out: mortality in comparison with untreated controls
Method: Example B1: Action on Yellow Fever Mosquito (Aedes aegypti)
For evaluating control of yellow fever mosquito (Aedes aegypti) the test unit consisted of 96-well-microtiter plates containing 200 μl of tap water per well and 5-15 freshly hatched A. aegypti larvae.
The active compounds were formulated using a solution containing 75% (v/v) water and 25% (v/v) DMSO. Different concentrations of formulated compounds or mixtures were sprayed onto the insect diet at 2.5 μl, using a custom built micro atomizer, at two replications.
After application, microtiter plates were incubated at 28+1° C., 80+5% RH for 2 days. Larval mortality was then visually assessed.

[7] = tested on: Mediterranean fruitfly (Ceratitis capitata); experiment: Action on Mediterranean fruitfly, eggs on insect diet in microtiter plates; details: 120 h, egg and larval mortality visually assessed after 5 days, read-out: mortality in comparison with untreated controls
Method: Example B5: Action on Mediterranean Fruitfly (Ceratitis capitata)
For evaluating control of Mediterranean fruitfly (Ceratitis capitata) the test unit consisted of microtiter plates containing an insect diet and 50-80 C. capitata eggs.
as §1
After application, microtiter plates were incubated at about […] and about 80+5% relative humidity for 5 days. Egg and larval mortality was then visually assessed.

[8] = tested on: Orchid Thrips (Dichromothrips corbetti); experiment: Action on orchid thrips, floral-immersion technique; details: adult thrips, 72 hours after treatment, read-out: mortality in comparison with untreated controls
Method: Example B2: Action on Orchid Thrips (Dichromothrips Corbetti)
Dichromothrips corbettiadults used for bioassay were obtained from a colony maintained continuously under laboratory conditions. For testing purposes, the test compound is diluted in a 1:1 mixture of acetone:water (vol:vol), plus Kinetic® HV at a rate of 0.01% v/v.
Thrips potency of each compound was evaluated by using a floral-immersion technique. All petals of individual, intact orchid flowers were dipped into treatment solution and allowed to dry in Petri dishes. Treated petals were placed into individual re-sealable plastic along with about 20 adult thrips. All test arenas were held under continuous light and a temperature of about 28° C. for duration of the assay. After 3 days, the numbers of live thrips were counted on each petal. The percent mortality was recorded 72 hours after treatment.

CC(C)c1ccccc1NC(=S)N/N=C/c1ccc2c(ccc3c2ncn3-c2ccc(OC(F)(F)F)cc2)n1 [Compound C-3, 1-(2-isopropylphenyl)-3-[(E)-[3-[4-(trifluoromethoxy)phenyl]imidazo[4,5-f]quinolin-7-yl]methyleneamino]thiourea]
≥ 75%: mortality at 800 ppm [1] | mortality at 800 ppm [2] | mortality at 500 ppm [3] | mortality at 500 ppm [4] | mortality at 500 ppm [5]

CC(C)c1ccccc1N1C(=O)CS/C1=N\N=C\c1ccc2c(ccc3c2ncn3-c2ccc(OC(F)(F)F)cc2)n1 [Compound C-4, (2Z)-3-(2-isopropylphenyl)-2-[(E)-[3-[4-(trifluoromethoxy)phenyl]imidazo[4,5-f]quinolin-7-yl]methylenehydrazono]thiazolidin-4-one]
≥ 75%: mortality at 800 ppm [1] | mortality at 800 ppm [2] | mortality at 800 ppm [6] | mortality at 800 ppm [7] | mortality at 500 ppm [3] | mortality at 500 ppm [4] | mortality at 500 ppm [8] | mortality at 500 ppm [5]

CC(C)c1ccccc1/N=C1\SCC(=O)N1/N=C/c1ccc2c(ccc3c2ncn3-c2ccc(OC(F)(F)F)cc2)n1 [Compound C-8, (2Z)-2-(2-isopropylphenyl)imino-3-[(E)-[3-[4-(trifluoromethoxy)phenyl]imidazo[4,5-f]quinolin-7-yl]methyleneamino]thiazolidin-4-one]
≥ 75%: mortality at 800 ppm [1] | mortality at 800 ppm [2] | mortality at 800 ppm [6] | mortality at 800 ppm [7] | mortality at 500 ppm [3] | mortality at 500 ppm [4] | mortality at 500 ppm [8] | mortality at 500 ppm [5]

CC(C)c1ccccc1/N=C1\SCC(=O)N1/N=C/c1cnc2c(ccc3c2ncn3-c2ccc(OC(F)(F)F)cc2)c1 [Compound C-16, (2Z)-2-(2-isopropylphenyl)imino-3-[(E)-[3-[4-(trifluoromethoxy)phenyl]imidazo[4,5-h]quinolin-7-yl]methyleneamino]thiazolidin-4-one]
≥ 75%: mortality at 800 ppm [1] | mortality at 800 ppm [2] | mortality at 800 ppm [6] | mortality at 800 ppm [7] | mortality at 500 ppm [3] | mortality at 500 ppm [4] | mortality at 500 ppm [8] | mortality at 500 ppm [5]

CC(C)c1ccccc1N1C(=O)CS/C1=N\N=C\c1cnc2c(ccc3c2ncn3-c2ccc(OC(F)(F)F)cc2)c1 [Compound C-17, (2Z)-3-(2-isopropylphenyl)-2-[(E)-[3-[4-(trifluoromethoxy)phenyl]imidazo[4,5-h]quinolin-7-yl]methylenehydrazono]thiazolidin-4-one]
≥ 75%: mortality at 800 ppm [1] | mortality at 800 ppm [2] | mortality at 800 ppm [6] | mortality at 800 ppm [7] | mortality at 500 ppm [3] | mortality at 500 ppm [8] | mortality at 500 ppm [5]

CC(C)c1ccccc1NC(=S)N/N=C/c1ccc2c(ccc3c(-c4ccc(OC(F)(F)F)cc4)n(C)nc32)n1 [Compound C-19, 1-(2-isopropylphenyl)-3-[(E)-[2-methyl-3-[4-(trifluoromethoxy)phenyl]pyrazolo[3,4-f]quinolin-7-yl]methyleneamino]thiourea]
≥ 75%: mortality at 800 ppm [1] | mortality at 800 ppm [2] | mortality at 800 ppm [6] | mortality at 800 ppm [7] | mortality at 500 ppm [3] | mortality at 500 ppm [4]

CC(C)c1ccccc1N1C(=O)CS/C1=N\N=C\c1ccc2c(ccc3c(-c4ccc(OC(F)(F)F)cc4)n(C)nc32)n1 [Compound C-20, (2Z)-3-(2-isopropylphenyl)-2-[(E)-[2-methyl-3-[4-(trifluoromethoxy)phenyl]pyrazolo[3,4-f]quinolin-7-yl]methylenehydrazono]thiazolidin-4-one]
≥ 75%: mortality at 800 ppm [1] | mortality at 800 ppm [2] | mortality at 800 ppm [6] | mortality at 800 ppm [7] | mortality at 500 ppm [3] | mortality at 500 ppm [4] | mortality at 500 ppm [5]

Cc1cccc(C)c1N1C(=O)CS/C1=N\N=C\c1cc2ccc3c(ncn3-c3ccc(OC(F)(F)F)cc3)c2cn1 [Compound C-27, (2Z)-3-(2,6-dimethylphenyl)-2-[(E)-[3-[4-(trifluoromethoxy)phenyl]imidazo[4,5-h]isoquinolin-7-yl]methylenehydrazono]thiazolidin-4-one]
≥ 75%: mortality at 800 ppm [1] | mortality at 800 ppm [2] | mortality at 800 ppm [6] | mortality at 800 ppm [7] | mortality at 500 ppm [4] | mortality at 500 ppm [8] | mortality at 500 ppm [5]

Cc1cccc(C)c1/N=C1\SCC(=O)N1/N=C/c1cc2ccc3c(ncn3-c3ccc(OC(F)(F)F)cc3)c2cn1 [Compound C-29, (2Z)-2-(2,6-dimethylphenyl)imino-3-[(E)-[3-[4-(trifluoromethoxy)phenyl]imidazo[4,5-h]isoquinolin-7-yl]methyleneamino]thiazolidin-4-one]
≥ 75%: mortality at 800 ppm [1] | mortality at 800 ppm [2] | mortality at 800 ppm [6] | mortality at 800 ppm [7] | mortality at 500 ppm [3] | mortality at 500 ppm [4] | mortality at 500 ppm [5]
